From the NIST ThermoML archive (doi:10.1016/j.fluid.2018.04.025)
Numbers after ± are expanded uncertainties.

Experiments:
[1] = 101.3 kPa, Liquid; for viscosity: Falling or rolling sphere viscometry; for speed of sound: Frequency=3 MHz, Sing-around technique in a fixed-path interferometer; for mass density: Vibrating tube method
[2] = xn = mol fraction of the nth substance listed; conditions: 101 kPa, Liquid, x2 = 0; for viscosity: Falling or rolling sphere viscometry; for speed of sound: Frequency=3 MHz, Sing-around technique in a fixed-path interferometer; for mass density: Vibrating tube method

`CCCC[n+]1ccn(C)c1.O=S(=O)([N-]S(=O)(=O)C(F)(F)F)C(F)(F)F` showed a viscosity ([1]; 298.15 K) of 51.15 ± 0.74 mPa·s, a speed of sound ([1]; 298.15 K) of 1227.3 ± 2.1 m/s and a mass density ([1]; 298.15 K) of 1436.02 ± 1.9 kg/m3. It also gave a viscosity ([1]; 303.15 K) of 41.88 ± 0.74 mPa·s, a speed of sound ([1]; 303.15 K) of 1216.3 ± 2.1 m/s and a mass density ([1]; 303.15 K) of 1431.22 ± 1.9 kg/m3. For the same compound, the viscosity ([1]; 308.15 K) was 34.58 ± 0.67 mPa·s, the speed of sound ([1]; 308.15 K) was 1205.5 ± 2.1 m/s and the mass density ([1]; 308.15 K) was 1426.43 ± 1.8 kg/m3. It also gave a viscosity ([1]; 313.15 K) of 28.98 ± 0.62 mPa·s, a speed of sound ([1]; 313.15 K) of 1194.7 ± 2.1 m/s and a mass density ([1]; 313.15 K) of 1421.64 ± 1.8 kg/m3. For the same compound, the viscosity ([1]; 318.15 K) was 24.6 ± 0.59 mPa·s, the speed of sound ([1]; 318.15 K) was 1184 ± 2.1 m/s and the mass density ([1]; 318.15 K) was 1416.84 ± 1.8 kg/m3. For the same compound, the viscosity ([1]; 323.15 K) was 21.1 ± 0.57 mPa·s, the speed of sound ([1]; 323.15 K) was 1173.5 ± 2.1 m/s and the mass density ([1]; 323.15 K) was 1411.89 ± 1.8 kg/m3.

Compound `CCCCO` [butan-1-ol] + CCCC[n+]1ccn(C)c1.O=S(=O)([N-]S(=O)(=O)C(F)(F)F)C(F)(F)F has a viscosity ([2]; 298.15 K) of 2.57 ± 0.6 mPa·s, a speed of sound ([2]; 298.15 K) of 1242.4 ± 1 m/s and a mass density ([2]; 298.15 K) of 806.704 ± 0.17 kg/m3. For the same compound, the viscosity ([2]; 303.15 K) was 2.26 ± 0.6 mPa·s, the speed of sound ([2]; 303.15 K) was 1225.5 ± 1 m/s and the mass density ([2]; 303.15 K) was 802.704 ± 0.17 kg/m3. The viscosity ([2]; 308.15 K) was 1.99 ± 0.6 mPa·s, the speed of sound ([2]; 308.15 K) was 1208.7 ± 1 m/s and the mass density ([2]; 308.15 K) was 798.992 ± 0.17 kg/m3. It also gave a viscosity ([2]; 313.15 K) of 1.77 ± 0.6 mPa·s, a speed of sound ([2]; 313.15 K) of 1192 ± 1 m/s and a mass density ([2]; 313.15 K) of 795.065 ± 0.17 kg/m3. For the same compound, the viscosity ([2]; 318.15 K) was 1.58 ± 0.6 mPa·s, the speed of sound ([2]; 318.15 K) was 1175.4 ± 1 m/s and the mass density ([2]; 318.15 K) was 791.094 ± 0.18 kg/m3. For the same compound, the viscosity ([2]; 323.15 K) was 1.41 ± 0.6 mPa·s, the speed of sound ([2]; 323.15 K) was 1158.8 ± 1 m/s and the mass density ([2]; 323.15 K) was 787.075 ± 0.18 kg/m3.

Compound `CCCO` [propan-1-ol] + CCCC[n+]1ccn(C)c1.O=S(=O)([N-]S(=O)(=O)C(F)(F)F)C(F)(F)F has a viscosity ([2]; 298.15 K) of 1.89 ± 0.6 mPa·s, a speed of sound ([2]; 298.15 K) of 1206.6 ± 0.86 m/s and a mass density ([2]; 298.15 K) of 799.924 ± 0.14 kg/m3. It also gave a viscosity ([2]; 303.15 K) of 1.69 ± 0.6 mPa·s, a speed of sound ([2]; 303.15 K) of 1189.5 ± 0.86 m/s and a mass density ([2]; 303.15 K) of 795.888 ± 0.14 kg/m3. For the same compound, the viscosity ([2]; 308.15 K) was 1.51 ± 0.6 mPa·s, the speed of sound ([2]; 308.15 K) was 1172.5 ± 0.85 m/s and the mass density ([2]; 308.15 K) was 791.815 ± 0.14 kg/m3. It also gave a viscosity ([2]; 313.15 K) of 1.35 ± 0.6 mPa·s, a speed of sound ([2]; 313.15 K) of 1155.6 ± 0.85 m/s and a mass density ([2]; 313.15 K) of 787.7 ± 0.14 kg/m3. The viscosity ([2]; 318.15 K) was 1.22 ± 0.6 mPa·s, the speed of sound ([2]; 318.15 K) was 1138.8 ± 0.84 m/s and the mass density ([2]; 318.15 K) was 783.538 ± 0.15 kg/m3. It also gave a viscosity ([2]; 323.15 K) of 1.09 mPa·s, a speed of sound ([2]; 323.15 K) of 1122 ± 0.84 m/s and a mass density ([2]; 323.15 K) of 779.321 ± 0.15 kg/m3.
